Assay results taken from PubChem BioAssay AID330 (DTP/NCI, 2004).
Where “and” joins values, the source holds several entries; their conditions need not be identical. Equal entries are not always repeated. Inconclusive results and toxic doses are left out.

Test system: P388 leukemia ip, CD2F1 mice, survival T/C
Assay: NCI In Vivo Anticancer Drug Screen. Data for tumor model P388 Leukemia (intraperitoneal) in CD2F1 (CDF1) mice
Conditions: endpoint: median survival time, higher = longer survival
Outline: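 Mice carrying the transplanted tumor received test compound or vehicle. Survival was recorded in each group, and the value is the treated-group measurement divided by that of the vehicle-treated control group.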

[1] = dose: 60.0 mg/kg/injection, schedule: Q01DX005 (ip), vehicle: saline with Tween-80
[2] = dose: 120.0 mg/kg/injection, schedule: Q01DX005 (ip), vehicle: saline with Tween-80
[3] = dose: 240.0 mg/kg/injection, schedule: Q01DX005 (ip), vehicle: saline with Tween-80
[4] = dose: 50.0 mg/kg/injection, schedule: Q01DX009 (ip), vehicle: saline
[5] = dose: 100.0 mg/kg/injection, schedule: Q01DX009 (ip), vehicle: saline
[6] = dose: 200.0 mg/kg/injection, schedule: Q01DX009 (ip), vehicle: saline
[7] = dose: 50.0 mg/kg/injection, schedule: Q01DX005 (ip), vehicle: Klucel (hydroxypropylcellulose) (HPC)
[8] = dose: 100.0 mg/kg/injection, schedule: Q01DX005 (ip), vehicle: Klucel (hydroxypropylcellulose) (HPC)
[9] = dose: 200.0 mg/kg/injection, schedule: Q01DX005 (ip), vehicle: Klucel (hydroxypropylcellulose) (HPC)
[10] = dose: 50.0 mg/kg/injection, schedule: Q01DX005 (ip), vehicle: saline with Tween-80
[11] = dose: 50.0 mg/kg/injection, schedule: Q01DX005 (ip), vehicle: saline
[12] = dose: 100.0 mg/kg/injection, schedule: Q01DX005 (ip), vehicle: saline

`O=c1[nH]c2ccccc2c(N=Cc2ccccc2)c1-c1ccccc1` was tested, and the T/C (dose: 60.0 mg/kg/injection, schedule: Q01DX005 (ip), vehicle: Klucel (hydroxypropylcellulose) (HPC)) was 96 % of control, the T/C (dose: 120.0 mg/kg/injection, schedule: Q01DX005 (ip), vehicle: Klucel (hydroxypropylcellulose) (HPC)) was 93 % of control and the T/C (dose: 240.0 mg/kg/injection, schedule: Q01DX005 (ip), vehicle: Klucel (hydroxypropylcellulose) (HPC)) was 98 % of control.

`CSc1nc(NC2OC(CO)C(O)C(O)C2O)c(C=O)c(=O)n1C` (centres undefined) was tested, and the T/C [1] was 100 % of control, the T/C [2] was 92 % of control and the T/C [3] was 91 % of control.

For `Cc1ccc(Nc2ccc3c4c(cc(=O)n3C)-c3ccccc3C(=O)c24)c(S(=O)(=O)O)c1`, the T/C [4] was 87 % of control, the T/C [5] was 91 % of control and the T/C [6] was 99 % of control. For the same compound, the T/C (dose: 400.0 mg/kg/injection, schedule: Q01DX009 (ip), vehicle: saline) was 95 % of control.

`CC(=O)OC1=C2C(C)(C)OC3CC(=O)OCC23C2CCC3(C)C(c4ccoc4)OC(=O)C4OC43C2(C)C1=O` (centres undefined) was tested, and the T/C (dose: 0.5 mg/kg/injection, schedule: Q01DX009 (ip), vehicle: saline + alcohol) was 113 % of control, the T/C (dose: 1.0 mg/kg/injection, schedule: Q01DX009 (ip), vehicle: saline + alcohol) was 110 % of control and the T/C (dose: 2.0 mg/kg/injection, schedule: Q01DX009 (ip), vehicle: saline + alcohol) was 107 % of control. For the same compound, the T/C (dose: 4.0 mg/kg/injection, schedule: Q01DX009 (ip), vehicle: saline + alcohol) was 101 % of control.

For `O=[Se]([O][Sn]([O][Se](=O)c1ccccc1)([O][Se](=O)c1ccccc1)[c]1ccccc1)c1ccccc1` (centres undefined), the T/C (dose: 25.0 mg/kg/injection, schedule: Q01DX009 (ip), vehicle: saline with Tween-80) was 104 % of control and 96 % of control, the T/C (dose: 50.0 mg/kg/injection, schedule: Q01DX009 (ip), vehicle: saline with Tween-80) was 100 % of control and 103 % of control and 118 % of control and the T/C (dose: 100.0 mg/kg/injection, schedule: Q01DX009 (ip), vehicle: saline with Tween-80) was 111 % of control and 121 % of control and 96 % of control.

In the case of `CC1Cc2c([nH]c3ccccc3c2=O)O1` (centres undefined), the T/C [4] is reported as 93 % of control, the T/C [5] is reported as 101 % of control and the T/C [6] is reported as 100 % of control.

`Cc1nc2sc3c(c2c2nncn12)CCCC3` was tested, and the T/C [7] was 103 % of control, the T/C [8] was 97 % of control and the T/C [9] was 97 % of control.

In the case of `CN(C)c1ccc(/C=N/NC(=O)c2ccccc2N)c(Cl)c1`, the T/C [1] is reported as 96 % of control and the T/C [2] is reported as 89 % of control.

In the case of `COc1cc2c3cc1Oc1c(O)c(OC)cc4c1[C@H](Cc1ccc(O)c(c1)Oc1ccc(cc1)C[C@H]3N(C)CC2)N(C)CC4`, the T/C (dose: 37.5 mg/kg/injection, schedule: Q01DX009 (ip), vehicle: Klucel (hydroxypropylcellulose) (HPC)) is reported as 98 % of control.

For `COc1ccccc1N=c1scc(C)n1C`, the T/C (dose: 50.0 mg/kg/injection, schedule: Q01DX009 (ip), vehicle: Klucel (hydroxypropylcellulose) (HPC)) was 111 % of control, the T/C (dose: 100.0 mg/kg/injection, schedule: Q01DX009 (ip), vehicle: Klucel (hydroxypropylcellulose) (HPC)) was 109 % of control and the T/C (dose: 200.0 mg/kg/injection, schedule: Q01DX009 (ip), vehicle: Klucel (hydroxypropylcellulose) (HPC)) was 118 % of control.

In the case of `COc1ccc2c(=O)cc[nH]c2c1OC`, the T/C [10] is reported as 100 % of control, the T/C (dose: 100.0 mg/kg/injection, schedule: Q01DX005 (ip), vehicle: saline with Tween-80) is reported as 94 % of control and the T/C (dose: 200.0 mg/kg/injection, schedule: Q01DX005 (ip), vehicle: saline with Tween-80) is reported as 94 % of control.

For `Cc1c2ccncc2c(CN(CCCl)CCCl)c2c3ccccc3n(C)c12`, the T/C (dose: 20.0 mg/kg/injection, schedule: Q01DX005 (ip), vehicle: saline) was 150 % of control and 160 % of control, the T/C [11] was 118 % of control and the T/C [12] was 182 % of control.

In the case of `O=[N+]([O-])c1cc(NC(=S)SCc2ccc3c(c2)OCO3)ccc1Cl`, the T/C (dose: 50.0 mg/kg/injection, schedule: Q01DX009 (ip), vehicle: suspension in saline) is reported as 110 % of control, the T/C (dose: 100.0 mg/kg/injection, schedule: Q01DX009 (ip), vehicle: suspension in saline) is reported as 114 % of control and the T/C (dose: 200.0 mg/kg/injection, schedule: Q01DX009 (ip), vehicle: suspension in saline) is reported as 87 % of control.

`CCN(CC)P(=O)(N1CC1C)N1CC1C` (centres undefined) was tested, and the T/C (dose: 33.0 mg/kg/injection, schedule: Q04DX003 (ip), vehicle: saline) was 109 % of control and the T/C (dose: 75.0 mg/kg/injection, schedule: Q04DX003 (ip), vehicle: saline) was 150 % of control.

`COc1cccc(CCN2C(=O)CCC3=C2CCC3=O)c1` was tested, and the T/C (dose: 25.0 mg/kg/injection, schedule: Q01DX005 (ip), vehicle: Klucel (hydroxypropylcellulose) (HPC)) was 94 % of control, the T/C [7] was 105 % of control and the T/C [8] was 102 % of control. For the same compound, the T/C [9] was 98 % of control.

In the case of `COc1c2c(c(O)c3c1C(=O)c1cccc(O)c1C3=O)C(OC1CC(N)C(O)C(C)O1)CC(O)(C(C)=O)C2` (centres undefined), the T/C (dose: 12.5 mg/kg/injection, schedule: Q04DX003 (ip), vehicle: water) is reported as 118 % of control, the T/C (dose: 25.0 mg/kg/injection, schedule: Q04DX003 (ip), vehicle: water) is reported as 118 % of control and the T/C (dose: 50.0 mg/kg/injection, schedule: Q04DX003 (ip), vehicle: water) is reported as 100 % of control.

For `CC(=O)c1oc2cc([N+](=O)[O-])c3ccccc3c2c1C`, the T/C [1] was 107 % of control, the T/C [2] was 98 % of control and the T/C [3] was 88 % of control.

With `O=C(O)CC(O)CCO` (centres undefined) the T/C (dose: 100.0 mg/kg/injection, schedule: Q01DX001 (ip), vehicle: saline) was 104 % of control, the T/C (dose: 200.0 mg/kg/injection, schedule: Q01DX001 (ip), vehicle: saline) was 103 % of control and the T/C (dose: 400.0 mg/kg/injection, schedule: Q01DX001 (ip), vehicle: saline) was 101 % of control.

With `[N-]=[N+]=Nc1ccccc1C(=O)NCCCNC(=O)c1ccccc1N=[N+]=[N-]` the T/C (dose: 12.5 mg/kg/injection, schedule: Q01DX005 (ip), vehicle: saline with Tween-80) was 91 % of control, the T/C (dose: 25.0 mg/kg/injection, schedule: Q01DX005 (ip), vehicle: saline with Tween-80) was 87 % of control and the T/C [10] was 86 % of control.

In the case of `CCN=C=NCCCN(C)C`, the T/C (dose: 7.5 mg/kg/injection, schedule: Q01DX009 (ip), vehicle: saline) is reported as 108 % of control, the T/C (dose: 7.5 mg/kg/injection, schedule: Q04DX003 (ip), vehicle: saline) is reported as 102 % of control and the T/C (dose: 15.0 mg/kg/injection, schedule: Q01DX009 (ip), vehicle: saline) is reported as 108 % of control. For the same compound, the T/C (dose: 15.0 mg/kg/injection, schedule: Q04DX003 (ip), vehicle: saline) was 99 % of control, the T/C (dose: 30.0 mg/kg/injection, schedule: Q01DX009 (ip), vehicle: saline) was 105 % of control and the T/C (dose: 30.0 mg/kg/injection, schedule: Q04DX003 (ip), vehicle: saline) was 98 % of control. The T/C (dose: 60.0 mg/kg/injection, schedule: Q01DX009 (ip), vehicle: saline) was 107 % of control.

With `COC1=CCC(Cc2ccc[nH]2)=CC1` the T/C (dose: 100.0 mg/kg/injection, schedule: Q01DX001 (ip), vehicle: distilled water + Tween-80 + alcohol) was 98 % of control, the T/C (dose: 200.0 mg/kg/injection, schedule: Q01DX001 (ip), vehicle: distilled water + Tween-80 + alcohol) was 105 % of control and the T/C (dose: 400.0 mg/kg/injection, schedule: Q01DX001 (ip), vehicle: distilled water + Tween-80 + alcohol) was 107 % of control.

In the case of `O`, the T/C (dose: 0.01 % in 0.5 ml injection vol, schedule: Q01DX009 (ip), vehicle: water) is reported as 92 % of control, the T/C (dose: 0.02 % in 0.5 ml injection vol, schedule: Q01DX009 (ip), vehicle: water) is reported as 100 % of control and 95 % of control and the T/C (dose: 0.04 % in 0.5 ml injection vol, schedule: Q01DX009 (ip), vehicle: water) is reported as 105 % of control. For the same compound, the T/C (dose: 0.08 % in 0.5 ml injection vol, schedule: Q01DX009 (ip), vehicle: water) was 100 % of control, the T/C (dose: 100.0 mg/kg/injection, schedule: Q01DX009 (ip), vehicle: acetone) was 95 % of control and the T/C (dose: 200.0 mg/kg/injection, schedule: Q01DX009 (ip), vehicle: acetone) was 90 % of control. The T/C (dose: 400.0 mg/kg/injection, schedule: Q01DX009 (ip), vehicle: acetone) was 100 % of control, the T/C (dose: 1:0.5 dilution, schedule: Q01DX005 (ip), vehicle: none) was 112 % of control and the T/C (dose: 1:1.0 dilution, schedule: Q01DX005 (ip), vehicle: none) was 100 % of control. For the same compound, the T/C (dose: 1:2.0 dilution, schedule: Q01DX005 (ip), vehicle: none) was 114 % of control.

`NNC(=O)NN1C(=O)c2cc(S(=O)(=O)O)cc3c(N)c(S(=O)(=O)O)cc(c23)C1=O` was tested, and the T/C [11] was 98 % of control, the T/C [12] was 104 % of control and the T/C (dose: 200.0 mg/kg/injection, schedule: Q01DX005 (ip), vehicle: saline) was 99 % of control.
